Measurements: ChEMBL document CHEMBL1201862, “PubChem BioAssay data set” (2004)
The source made the active and inactive calls.

Experiments:
[1] = tested on: HEK293; assay: SAR Analysis of small molecule inhibitors of B-cell specific antigen receptor-induced NF-kB activation in a HEK-293T cell line using a luminescence assay - Set 2. [Related pubchem assays (depositor defined):AID435022, AID435025, AID489021]; assay type: functional, cell-based; conditions: Homo sapiens
[2] = tested on: Jurkat; assay: SAR Analysis of small molecule inhibitors of […] specific antigen receptor-induced NF-kB activation in a Jurkat cell line using a luminescence assay - Set 3. [Related pubchem assays (depositor defined):AID435022, AID435025, AID465]; assay type: functional, cell-based; conditions: Homo sapiens
[3] = tested on: HEK293; assay: cytotoxicity in HEK293T NF-kB-Luc cells, SAR follow-up, cytotoxicity control for NF-kB activator project, cell-based, resazurin fluorescence (AID 493251); assay type: functional; conditions: Homo sapiens
[4] = target: T1, Endoribonuclease toxin MazF (Escherichia coli K-12, UniProt P0AE70); assay: MazF toxin RNase activators, dose response, biochemical, fluorescence, single-stranded RNA substrate, uHTS hits (AID 588481); assay type: functional
T1 sequence (P0AE70 whole entry): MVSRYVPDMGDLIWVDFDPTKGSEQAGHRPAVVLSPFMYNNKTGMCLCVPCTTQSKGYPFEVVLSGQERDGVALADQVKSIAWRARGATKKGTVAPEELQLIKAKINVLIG

[5] = target: T1, Endoribonuclease toxin MazF; assay: SAR analysis of small molecule activators of the MazEF TA System via a fluorescence-based single-stranded RNase assay counterscreen. [Related pubchem assays (depositor defined):AID504720, AID504743]; assay type: functional
[6] = target: T1, Endoribonuclease toxin MazF; assay: MazF endoribonuclease activators, SAR follow-up, biochemical, fluorescence, single-stranded RNA substrate (AID 588603); assay type: functional
[7] = tested on: MEF; assay: SAR analysis of small molecule cytotoxicity of MazEF TA System activators in embryonic fibroblast (MEF) cells. [Related pubchem assays (depositor defined):AID504720, AID504743]; assay type: functional; conditions: Mus musculus
[8] = target: T1, Endoribonuclease toxin MazF; assay: fluorescent RNA oligo signal without MazF, dose response, counter-screen for MazEF activator project, biochemical, fluorescence, single-stranded RNase substrate (AID 588502); assay type: functional
[9] = target: T2, Sentrin-specific protease 6 (Homo sapiens, UniProt Q9GZR1); assay type: functional;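 also: Luminescence-based dose-response confirmatory assay of SENP6 inhibition, following up an ultra-high-throughput screen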
T2 sequence (Q9GZR1 whole entry): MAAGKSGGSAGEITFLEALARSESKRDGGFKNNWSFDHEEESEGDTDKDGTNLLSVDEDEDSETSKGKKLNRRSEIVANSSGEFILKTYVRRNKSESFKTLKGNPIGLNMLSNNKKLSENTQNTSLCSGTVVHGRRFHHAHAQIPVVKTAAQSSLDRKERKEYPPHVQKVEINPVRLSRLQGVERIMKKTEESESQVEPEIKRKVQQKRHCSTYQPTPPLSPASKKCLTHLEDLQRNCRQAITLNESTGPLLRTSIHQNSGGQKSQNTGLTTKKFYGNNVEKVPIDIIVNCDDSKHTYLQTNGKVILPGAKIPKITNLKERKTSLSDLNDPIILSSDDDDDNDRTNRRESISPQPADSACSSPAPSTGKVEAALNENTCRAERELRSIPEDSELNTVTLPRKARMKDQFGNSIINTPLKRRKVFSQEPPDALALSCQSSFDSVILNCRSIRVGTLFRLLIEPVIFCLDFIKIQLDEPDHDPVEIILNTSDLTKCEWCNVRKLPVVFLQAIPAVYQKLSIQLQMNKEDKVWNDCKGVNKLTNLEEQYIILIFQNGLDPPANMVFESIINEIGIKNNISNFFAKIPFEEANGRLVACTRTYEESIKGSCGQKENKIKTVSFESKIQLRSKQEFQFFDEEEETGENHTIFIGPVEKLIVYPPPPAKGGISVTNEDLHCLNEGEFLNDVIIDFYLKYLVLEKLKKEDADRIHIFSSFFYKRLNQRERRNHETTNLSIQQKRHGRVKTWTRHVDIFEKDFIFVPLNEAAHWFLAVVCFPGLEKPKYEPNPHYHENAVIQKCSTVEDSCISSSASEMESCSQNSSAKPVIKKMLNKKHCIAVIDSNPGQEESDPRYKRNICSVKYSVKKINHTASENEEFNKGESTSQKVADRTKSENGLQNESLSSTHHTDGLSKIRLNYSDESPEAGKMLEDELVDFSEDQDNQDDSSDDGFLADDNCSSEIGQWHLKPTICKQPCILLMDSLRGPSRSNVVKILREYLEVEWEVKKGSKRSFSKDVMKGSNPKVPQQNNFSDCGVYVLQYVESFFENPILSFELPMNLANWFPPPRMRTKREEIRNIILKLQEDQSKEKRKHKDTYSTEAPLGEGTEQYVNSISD

[10] = target: T3, Caspase-3 (Homo sapiens, UniProt P42574); assay type: functional;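 also: Dose-response selectivity test against caspase-3 for candidate inhibitors of sentrin-specific proteases (SENPs)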
T3 sequence (P42574 whole entry): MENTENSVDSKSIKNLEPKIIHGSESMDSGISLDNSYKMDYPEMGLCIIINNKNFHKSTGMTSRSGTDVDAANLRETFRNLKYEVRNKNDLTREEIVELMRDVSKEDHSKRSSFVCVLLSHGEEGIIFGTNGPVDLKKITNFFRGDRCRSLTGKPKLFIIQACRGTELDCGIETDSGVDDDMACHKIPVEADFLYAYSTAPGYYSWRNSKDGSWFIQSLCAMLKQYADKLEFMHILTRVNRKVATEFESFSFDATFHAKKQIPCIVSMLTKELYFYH

[11] = target: T4, Sentrin-specific protease 8 (Homo sapiens, UniProt Q96LD8); assay type: functional;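 also: luminescence read-out of SENP8 inhibition, dose-response confirmation following an ultra-high-throughput screen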
T4 sequence (Q96LD8 whole entry): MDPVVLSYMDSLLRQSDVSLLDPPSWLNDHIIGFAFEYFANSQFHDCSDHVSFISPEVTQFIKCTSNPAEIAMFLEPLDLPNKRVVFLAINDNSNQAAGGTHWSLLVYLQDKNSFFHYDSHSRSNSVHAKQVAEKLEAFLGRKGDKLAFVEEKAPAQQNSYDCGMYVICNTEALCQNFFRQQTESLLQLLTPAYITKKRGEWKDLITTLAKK

[12] = target: T5, Sentrin-specific protease 7 (Homo sapiens, UniProt Q9BQF6); assay type: functional;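 also: Luminescence-based dose-response confirmation of ultra-high-throughput screening hits, measuring inhibition of SENP7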
T5 sequence (Q9BQF6 whole entry): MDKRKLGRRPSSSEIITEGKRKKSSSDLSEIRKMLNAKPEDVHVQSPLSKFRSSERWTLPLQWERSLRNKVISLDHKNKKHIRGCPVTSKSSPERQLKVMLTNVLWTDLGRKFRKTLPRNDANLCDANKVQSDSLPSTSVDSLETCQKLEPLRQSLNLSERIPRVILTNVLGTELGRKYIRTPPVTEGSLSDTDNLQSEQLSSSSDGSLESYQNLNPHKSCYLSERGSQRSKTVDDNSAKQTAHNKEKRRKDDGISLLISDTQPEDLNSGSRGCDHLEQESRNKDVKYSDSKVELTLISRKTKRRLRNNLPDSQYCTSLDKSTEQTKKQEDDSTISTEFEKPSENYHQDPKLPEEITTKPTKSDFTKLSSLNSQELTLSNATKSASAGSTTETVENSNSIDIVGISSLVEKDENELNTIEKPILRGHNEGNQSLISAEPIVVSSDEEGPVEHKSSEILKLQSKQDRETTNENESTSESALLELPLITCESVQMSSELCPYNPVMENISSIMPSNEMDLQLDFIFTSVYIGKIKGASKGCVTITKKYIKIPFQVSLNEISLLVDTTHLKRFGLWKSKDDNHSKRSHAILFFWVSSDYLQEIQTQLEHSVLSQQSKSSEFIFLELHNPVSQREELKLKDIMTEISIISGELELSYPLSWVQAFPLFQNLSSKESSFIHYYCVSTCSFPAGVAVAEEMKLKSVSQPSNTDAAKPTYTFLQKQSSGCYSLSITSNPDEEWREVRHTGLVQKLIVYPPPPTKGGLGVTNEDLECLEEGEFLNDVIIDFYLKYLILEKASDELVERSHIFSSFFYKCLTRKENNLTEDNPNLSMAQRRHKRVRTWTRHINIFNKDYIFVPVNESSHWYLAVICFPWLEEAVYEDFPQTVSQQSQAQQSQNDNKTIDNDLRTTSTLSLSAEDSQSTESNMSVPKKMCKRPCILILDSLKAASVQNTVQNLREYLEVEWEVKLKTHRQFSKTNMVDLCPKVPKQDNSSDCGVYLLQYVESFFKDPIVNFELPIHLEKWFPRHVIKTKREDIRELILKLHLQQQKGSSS

[13] = target: T6, Streptokinase A (Streptococcus pyogenes serotype M1, UniProt P10520); assay: S. pyogenes streptokinase expression inhibitors, potency, dose response, plasminogen activation absorbance, OD405 (AID 1914); assay type: functional, Streptococcus pyogenes M1 GAS;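 also: secreted streptokinase activity via plasminogen activation per viability signal from cell pellet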
T6 sequence (P10520 whole entry): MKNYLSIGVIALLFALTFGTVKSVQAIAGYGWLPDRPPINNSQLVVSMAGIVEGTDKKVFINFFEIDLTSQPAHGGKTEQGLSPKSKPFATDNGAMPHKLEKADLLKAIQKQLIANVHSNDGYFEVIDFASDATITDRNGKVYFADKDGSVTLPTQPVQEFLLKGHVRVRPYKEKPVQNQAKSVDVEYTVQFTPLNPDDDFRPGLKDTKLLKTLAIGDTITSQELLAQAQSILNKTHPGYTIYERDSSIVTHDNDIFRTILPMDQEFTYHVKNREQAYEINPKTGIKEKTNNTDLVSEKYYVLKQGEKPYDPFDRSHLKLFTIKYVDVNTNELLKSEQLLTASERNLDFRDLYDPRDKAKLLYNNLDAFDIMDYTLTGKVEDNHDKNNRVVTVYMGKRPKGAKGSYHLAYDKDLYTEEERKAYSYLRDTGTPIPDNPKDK

[14] = target: Cysteine protease ATG4B (Homo sapiens, UniProt Q9Y4P1); assay type: functional;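 also: Fluorescence-based dose-response confirmation assay measuring inhibition of ATG4B activity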
Chain of Cysteine protease ATG4B (Q9Y4P1 whole entry): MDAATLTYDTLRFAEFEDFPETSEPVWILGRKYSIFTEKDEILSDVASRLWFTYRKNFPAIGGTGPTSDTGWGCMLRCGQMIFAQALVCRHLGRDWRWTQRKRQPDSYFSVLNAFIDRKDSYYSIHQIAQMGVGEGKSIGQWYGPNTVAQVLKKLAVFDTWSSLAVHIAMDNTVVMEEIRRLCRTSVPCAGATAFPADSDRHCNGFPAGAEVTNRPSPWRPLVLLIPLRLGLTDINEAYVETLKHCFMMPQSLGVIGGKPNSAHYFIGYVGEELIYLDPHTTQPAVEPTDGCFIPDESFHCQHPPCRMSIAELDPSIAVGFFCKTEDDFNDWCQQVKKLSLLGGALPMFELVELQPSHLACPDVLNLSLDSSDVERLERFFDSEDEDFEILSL

[15] = target: Phospholipase A2 (Homo sapiens, UniProt P04054); assay type: functional;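 also: confirmatory dose-response counterscreen on phospholipase A2, testing hits that came from an ultra-high-throughput screen for ATG4B inhibitors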
Chain of Phospholipase A2 (P04054 whole entry): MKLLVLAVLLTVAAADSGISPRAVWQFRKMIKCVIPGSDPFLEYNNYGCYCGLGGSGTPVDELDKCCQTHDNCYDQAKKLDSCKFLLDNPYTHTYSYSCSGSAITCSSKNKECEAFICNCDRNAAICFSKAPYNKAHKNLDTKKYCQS

[16] = tested on: Streptococcus sp. 'group A'; assay: growth inhibition of control SK(-) GAS strain, dose response, counter-screen for streptokinase expression inhibitor project, luminescence, kanamycin, BacTiterGlo, confirmation (AID 1900); assay type: functional, organism-based
[17] = tested on: Streptococcus; assay: Group A Streptococcus viability loss, dose response, counter-screen for streptokinase expression inhibitor project, luminescence, BacTiterGlo (AID 1915); assay type: functional, organism-based;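 also: potency for reduction of bacterial viability or growth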
[18] = tested on: HEK293; assay: cells; assay type: functional, cell-based; conditions: Homo sapiens
[19] = target: T7, Nuclear receptor subfamily 0 group B member 1 (Homo sapiens, UniProt P51843); assay: Luminescence-based cell-based high throughput dose response assay for inhibitors of the orphan nuclear receptor subfamily 0, group B, member 1 (DAX1; NR0B1). [Related pubchem assays (depositor defined):AID504766, AID504790]; assay type: functional
T7 sequence (P51843 whole entry): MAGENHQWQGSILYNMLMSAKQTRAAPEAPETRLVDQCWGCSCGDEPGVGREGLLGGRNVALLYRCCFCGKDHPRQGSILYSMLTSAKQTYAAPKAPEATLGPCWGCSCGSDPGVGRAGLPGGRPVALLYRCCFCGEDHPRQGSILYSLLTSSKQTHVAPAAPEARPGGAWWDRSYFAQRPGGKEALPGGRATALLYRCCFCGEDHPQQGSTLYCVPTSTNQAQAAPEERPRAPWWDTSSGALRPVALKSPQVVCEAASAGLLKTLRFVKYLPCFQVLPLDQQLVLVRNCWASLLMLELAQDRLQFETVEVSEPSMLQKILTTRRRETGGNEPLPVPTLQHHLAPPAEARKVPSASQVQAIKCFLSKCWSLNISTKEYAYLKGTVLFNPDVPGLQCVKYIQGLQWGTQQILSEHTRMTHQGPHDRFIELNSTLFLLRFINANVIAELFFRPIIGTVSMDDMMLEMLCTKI

Question: `CCOc1ccc(-c2nc(CSCC(=O)NCc3ccc(C)cc3)c(C)o2)cc1` was tested. Which IC50 [1] did it give?
Answer: > 80 µM (inactive)

Question: And the IC50 [2]?
Answer: 48.9 µM (inactive)

Question: And the IC50 [3]?
Answer: > 80 µM (inactive)

Question: `Cc1[nH]c2ccccc2c1/C=C/c1nc2ccccc2c(=O)n1-c1ccc([N+](=O)[O-])cc1` was tested. Which EC50 [4] did it give?
Answer: > 99 µM (inactive)

Question: And the EC50 [5]?
Answer: > 99 µM (inactive)

Question: What about the EC50 [6] of the same compound?
Answer: > 99 µM (inactive)

Question: And the CC50 [7]?
Answer: > 99 µM (inactive)

Question: And the EC50 [8]?
Answer: > 99 µM (inactive)

Question: For `CCSc1nnc(NC(=O)c2ccc(C)cc2)s1`, which IC50 [9] is on record?
Answer: > 100 µM (inactive)

Question: What about the IC50 [10] of the same compound?
Answer: 28 µM (active)

Question: What about the IC50 [11] of the same compound?
Answer: > 100 µM (inactive)

Question: What about the IC50 [12] of the same compound?
Answer: 9.7 µM (active)

Question: For `COC(=O)/C=C1\SC(Nc2ccc(Cl)c(Cl)c2)=NC1=O`, which EC50 [13] is on record?
Answer: 15.4 µM (active)

Question: And the IC50 [14]?
Answer: 16.9 µM (active)

Question: What about the IC50 [15] of the same compound?
Answer: 11 µM (active)

Question: What about the EC50 [16] of the same compound?
Answer: 10 µM (active)

Question: What about the EC50 [17] of the same compound?
Answer: 16.9 µM (active)

Question: Which results are given for `Cc1ccc2[nH]c(-c3ccc(NC(=O)c4ccco4)cc3)nc2c1`?
Answer: IC50 [9]: > 100 µM (inactive); IC50 [10]: 29.6 µM (active); IC50 [11]: 30.8 µM (active); IC50 [12]: 6.23 µM (active)

Question: `C=CCNC(=O)CCc1nc(-c2ccc(C(C)(C)C)cc2)no1` was tested. Which IC50 [1] did it give?
Answer: 5.3 µM (active)

Question: What about the IC50 [2] of the same compound?
Answer: 25.2 µM (inactive)

Question: And the IC50 [3]?
Answer: > 80 µM (inactive)

Question: For `O=[N+]([O-])c1ccc(S(=O)(=O)N/N=C/c2c[nH]c3ccccc23)cc1`, which EC50 [5] is on record?
Answer: > 99 µM (inactive)

Question: And the EC50 [6]?
Answer: 56.8 µM (inactive)

Question: And the CC50 [7]?
Answer: > 99 µM (inactive)

Question: Which results are given for `C/C(=N\NC(=S)NC1CCCCC1)c1ccc(Cl)c(Cl)c1`?
Answer: IC50 [18]: > 67.5 µM (inactive); IC50 [19]: > 67.5 µM (inactive)

Question: What does the source list for `COc1ccccc1/C=N\Nc1ccccc1[N+](=O)[O-]`?
Answer: IC50 [18]: > 67.6 µM (inactive); IC50 [19]: > 67.6 µM (inactive)
